Measured values taken from the kinase profiling compilation of Christmann-Franck et al. (2016).

Experiments:
Assay in all cases: radiometric filter-binding kinase assay, Kinase HotSpot
Conditions in all cases: compound 0.5 µM; ATP 10 µM
CAMK2G (human) = CAMK2G (human) (UniProt Q13555)
ROCK1 (human) = ROCK1 (human) (UniProt Q13464)
[1] = target: TYK2 JH1 catalytic (human) (UniProt P29597)
TNK2 (human) = TNK2 (human) (UniProt Q07912)
EPHB2 (human) = EPHB2 (human) (UniProt P29323)
MARK3 (human) = MARK3 (human) (UniProt P27448)
DAPK2 (human) = DAPK2 (human) (UniProt Q9UIK4)
CDC42BPB (human) = CDC42BPB (human) (UniProt Q9Y5S2)
NTRK1 (human) = NTRK1 (human) (UniProt P04629)
NTRK1 (human), sequence (P04629 whole entry, looked up): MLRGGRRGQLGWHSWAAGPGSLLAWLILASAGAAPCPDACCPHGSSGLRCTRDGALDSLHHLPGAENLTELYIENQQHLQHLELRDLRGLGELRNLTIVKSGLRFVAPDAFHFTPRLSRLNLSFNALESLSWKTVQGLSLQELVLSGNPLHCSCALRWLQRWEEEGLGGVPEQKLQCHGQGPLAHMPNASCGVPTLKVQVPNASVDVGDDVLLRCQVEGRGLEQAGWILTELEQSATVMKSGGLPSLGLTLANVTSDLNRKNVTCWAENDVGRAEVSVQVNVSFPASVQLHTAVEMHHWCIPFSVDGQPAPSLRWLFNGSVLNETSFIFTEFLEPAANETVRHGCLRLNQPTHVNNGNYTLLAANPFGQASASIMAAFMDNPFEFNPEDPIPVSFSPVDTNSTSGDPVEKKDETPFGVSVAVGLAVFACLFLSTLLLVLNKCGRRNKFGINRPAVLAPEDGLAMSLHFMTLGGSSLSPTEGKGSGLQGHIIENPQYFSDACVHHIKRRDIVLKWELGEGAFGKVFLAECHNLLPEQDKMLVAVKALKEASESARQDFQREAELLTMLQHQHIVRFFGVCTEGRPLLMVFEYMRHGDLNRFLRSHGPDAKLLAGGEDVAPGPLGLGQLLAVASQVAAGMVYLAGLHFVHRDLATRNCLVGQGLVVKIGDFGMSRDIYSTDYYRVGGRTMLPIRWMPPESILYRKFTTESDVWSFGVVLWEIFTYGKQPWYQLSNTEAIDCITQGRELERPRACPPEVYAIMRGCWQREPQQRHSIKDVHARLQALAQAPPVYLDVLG

ULK2 (human) = ULK2 (human) (UniProt Q8IYT8)
ACVR1B (human) = ACVR1B (human) (UniProt P36896)
PIM2 (human) = PIM2 (human) (UniProt Q9P1W9)
PRKCI (human) = PRKCI (human) (UniProt P41743)
PTK2B (human) = PTK2B (human) (UniProt Q14289)
GRK6 (human) = GRK6 (human) (UniProt P43250)
CLK1 (human) = CLK1 (human) (UniProt P49759)
MAP3K11 (human) = MAP3K11 (human) (UniProt Q16584)
RIPK2 (human) = RIPK2 (human) (UniProt O43353)
RIPK2 (human), sequence (O43353 whole entry, looked up): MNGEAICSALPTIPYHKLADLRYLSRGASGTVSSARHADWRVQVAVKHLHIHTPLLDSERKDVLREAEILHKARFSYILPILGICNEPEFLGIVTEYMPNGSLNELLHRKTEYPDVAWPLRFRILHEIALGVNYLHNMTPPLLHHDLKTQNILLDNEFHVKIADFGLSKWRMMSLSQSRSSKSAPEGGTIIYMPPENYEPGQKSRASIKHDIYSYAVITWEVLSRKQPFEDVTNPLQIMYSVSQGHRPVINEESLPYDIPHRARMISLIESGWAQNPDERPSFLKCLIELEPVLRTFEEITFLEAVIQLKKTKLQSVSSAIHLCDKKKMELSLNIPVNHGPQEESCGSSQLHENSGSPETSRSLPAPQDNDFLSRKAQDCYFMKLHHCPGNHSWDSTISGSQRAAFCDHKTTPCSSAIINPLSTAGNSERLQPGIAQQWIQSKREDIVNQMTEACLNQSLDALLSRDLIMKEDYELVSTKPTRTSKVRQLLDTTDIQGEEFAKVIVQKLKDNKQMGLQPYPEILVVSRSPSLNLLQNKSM

PRKD1 (human) = PRKD1 (human) (UniProt Q15139)
JAK3 JH1 JH2 (human) = JAK3 JH1 JH2 (human) (UniProt P52333)
CDK9 CCNT1 (human) = CDK9 CCNT1 (human) (UniProt P50750+O60563)
CDK9 CCNT1 (human), sequence (O60563 whole entry, looked up): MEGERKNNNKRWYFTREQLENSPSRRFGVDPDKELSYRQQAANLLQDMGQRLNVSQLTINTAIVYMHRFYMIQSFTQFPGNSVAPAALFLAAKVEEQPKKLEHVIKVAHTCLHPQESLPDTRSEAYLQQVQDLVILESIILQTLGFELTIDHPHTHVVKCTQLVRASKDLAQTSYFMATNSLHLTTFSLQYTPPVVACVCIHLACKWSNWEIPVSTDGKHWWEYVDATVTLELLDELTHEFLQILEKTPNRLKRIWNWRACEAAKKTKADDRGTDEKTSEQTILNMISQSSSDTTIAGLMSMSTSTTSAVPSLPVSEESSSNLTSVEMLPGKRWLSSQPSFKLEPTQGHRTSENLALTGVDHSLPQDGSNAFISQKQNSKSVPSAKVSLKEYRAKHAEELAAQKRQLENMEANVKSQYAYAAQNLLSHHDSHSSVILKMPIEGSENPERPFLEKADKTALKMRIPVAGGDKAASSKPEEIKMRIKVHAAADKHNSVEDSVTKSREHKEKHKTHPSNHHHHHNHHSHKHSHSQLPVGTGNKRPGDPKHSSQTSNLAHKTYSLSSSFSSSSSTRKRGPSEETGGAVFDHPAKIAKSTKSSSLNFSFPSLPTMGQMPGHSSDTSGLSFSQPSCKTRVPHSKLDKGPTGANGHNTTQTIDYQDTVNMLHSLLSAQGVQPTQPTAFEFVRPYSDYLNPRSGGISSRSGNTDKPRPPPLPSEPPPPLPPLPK
CDK9 CCNT1 (human), sequence (P50750 whole entry, looked up): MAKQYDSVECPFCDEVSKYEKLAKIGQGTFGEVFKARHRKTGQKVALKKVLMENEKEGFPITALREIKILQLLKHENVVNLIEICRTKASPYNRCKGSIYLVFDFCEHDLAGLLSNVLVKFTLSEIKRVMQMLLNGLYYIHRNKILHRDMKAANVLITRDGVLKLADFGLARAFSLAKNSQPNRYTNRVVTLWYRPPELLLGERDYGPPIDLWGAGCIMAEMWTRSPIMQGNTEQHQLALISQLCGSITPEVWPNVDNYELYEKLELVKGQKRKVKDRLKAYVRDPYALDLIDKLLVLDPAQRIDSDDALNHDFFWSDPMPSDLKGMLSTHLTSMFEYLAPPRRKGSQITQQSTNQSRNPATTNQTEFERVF

DAPK1 (human) = DAPK1 (human) (UniProt P53355)
DAPK1 (human), sequence (P53355 whole entry, looked up): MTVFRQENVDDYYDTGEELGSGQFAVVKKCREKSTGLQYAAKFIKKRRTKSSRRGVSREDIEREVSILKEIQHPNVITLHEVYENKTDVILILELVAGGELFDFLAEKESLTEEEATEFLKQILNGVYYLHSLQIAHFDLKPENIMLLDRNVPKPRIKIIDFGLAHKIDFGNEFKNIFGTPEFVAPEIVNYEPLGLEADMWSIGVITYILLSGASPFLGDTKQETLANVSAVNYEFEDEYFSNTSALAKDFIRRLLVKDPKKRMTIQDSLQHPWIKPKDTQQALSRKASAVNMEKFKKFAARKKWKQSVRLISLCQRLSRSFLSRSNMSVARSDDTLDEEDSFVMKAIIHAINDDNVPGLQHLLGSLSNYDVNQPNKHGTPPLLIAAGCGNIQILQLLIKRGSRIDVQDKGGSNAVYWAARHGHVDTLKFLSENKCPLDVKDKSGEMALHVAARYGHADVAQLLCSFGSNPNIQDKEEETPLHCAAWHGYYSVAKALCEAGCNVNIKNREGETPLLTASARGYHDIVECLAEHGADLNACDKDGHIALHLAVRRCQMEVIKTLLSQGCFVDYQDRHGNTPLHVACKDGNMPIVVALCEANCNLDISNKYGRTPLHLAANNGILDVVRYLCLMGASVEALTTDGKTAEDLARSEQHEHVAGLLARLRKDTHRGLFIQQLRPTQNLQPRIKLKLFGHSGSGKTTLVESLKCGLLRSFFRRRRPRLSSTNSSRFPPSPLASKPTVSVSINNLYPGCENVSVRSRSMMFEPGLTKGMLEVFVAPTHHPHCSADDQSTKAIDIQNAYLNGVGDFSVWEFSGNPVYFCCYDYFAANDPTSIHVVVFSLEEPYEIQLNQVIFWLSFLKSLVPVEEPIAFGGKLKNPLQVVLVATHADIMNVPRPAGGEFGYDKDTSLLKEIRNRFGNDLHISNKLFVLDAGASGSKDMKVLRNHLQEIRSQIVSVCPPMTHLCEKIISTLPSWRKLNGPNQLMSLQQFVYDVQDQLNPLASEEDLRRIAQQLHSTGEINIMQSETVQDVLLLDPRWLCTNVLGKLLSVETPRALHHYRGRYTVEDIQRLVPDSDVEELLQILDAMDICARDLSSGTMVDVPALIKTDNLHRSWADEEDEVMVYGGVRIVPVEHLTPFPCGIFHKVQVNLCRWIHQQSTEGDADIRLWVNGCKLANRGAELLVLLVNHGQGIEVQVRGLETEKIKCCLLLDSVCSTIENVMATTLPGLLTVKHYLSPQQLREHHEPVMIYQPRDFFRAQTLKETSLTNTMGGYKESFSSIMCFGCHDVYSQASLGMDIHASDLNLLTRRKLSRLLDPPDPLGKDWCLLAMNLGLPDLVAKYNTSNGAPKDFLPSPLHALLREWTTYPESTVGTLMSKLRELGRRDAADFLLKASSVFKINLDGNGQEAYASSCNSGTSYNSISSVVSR

BRSK1 (human) = BRSK1 (human) (UniProt Q8TDC3)
EPHB4 (human) = EPHB4 (human) (UniProt P54760)
CSNK1G3 (human) = CSNK1G3 (human) (UniProt Q9Y6M4)
MAP3K3 (human) = MAP3K3 (human) (UniProt Q99759)
MAP4K4 (human) = MAP4K4 (human) (UniProt O95819)
DYRK3 (human) = DYRK3 (human) (UniProt O43781)
DYRK3 (human), sequence (O43781 whole entry, looked up): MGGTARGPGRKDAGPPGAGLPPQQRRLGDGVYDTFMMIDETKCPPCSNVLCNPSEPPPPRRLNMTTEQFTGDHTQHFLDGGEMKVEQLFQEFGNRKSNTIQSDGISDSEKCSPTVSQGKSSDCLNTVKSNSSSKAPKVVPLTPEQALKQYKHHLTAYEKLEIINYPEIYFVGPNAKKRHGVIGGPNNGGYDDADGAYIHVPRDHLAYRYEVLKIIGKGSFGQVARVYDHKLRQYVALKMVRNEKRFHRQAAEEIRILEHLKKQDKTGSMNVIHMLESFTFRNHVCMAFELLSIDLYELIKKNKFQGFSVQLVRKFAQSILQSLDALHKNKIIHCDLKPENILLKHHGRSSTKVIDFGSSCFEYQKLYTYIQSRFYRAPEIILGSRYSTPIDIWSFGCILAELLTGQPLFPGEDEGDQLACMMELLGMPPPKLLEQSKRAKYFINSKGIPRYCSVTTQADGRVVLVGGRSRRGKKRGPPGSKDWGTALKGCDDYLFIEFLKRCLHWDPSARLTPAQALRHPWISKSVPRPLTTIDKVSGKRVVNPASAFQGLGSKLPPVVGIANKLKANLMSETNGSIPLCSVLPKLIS

CDK2 CCNE1 (human) = CDK2 CCNE1 (human) (UniProt P24941+P24864)
TSSK2 (human) = TSSK2 (human) (UniProt Q96PF2)
STK3 (human) = STK3 (human) (UniProt Q13188)
CSNK1A1 (human) = CSNK1A1 (human) (UniProt P48729)
STK33 (human) = STK33 (human) (UniProt Q9BYT3)
BMX (human) = BMX (human) (UniProt P51813)
IRAK1 (human) = IRAK1 (human) (UniProt P51617)
STK39 (human) = STK39 (human) (UniProt Q9UEW8)
CLK3 (human) = CLK3 (human) (UniProt P49761)
EPHA4 (human) = EPHA4 (human) (UniProt P54764)
MAP3K8 (human) = MAP3K8 (human) (UniProt P41279)
MAP3K8 (human), sequence (P41279 whole entry, looked up): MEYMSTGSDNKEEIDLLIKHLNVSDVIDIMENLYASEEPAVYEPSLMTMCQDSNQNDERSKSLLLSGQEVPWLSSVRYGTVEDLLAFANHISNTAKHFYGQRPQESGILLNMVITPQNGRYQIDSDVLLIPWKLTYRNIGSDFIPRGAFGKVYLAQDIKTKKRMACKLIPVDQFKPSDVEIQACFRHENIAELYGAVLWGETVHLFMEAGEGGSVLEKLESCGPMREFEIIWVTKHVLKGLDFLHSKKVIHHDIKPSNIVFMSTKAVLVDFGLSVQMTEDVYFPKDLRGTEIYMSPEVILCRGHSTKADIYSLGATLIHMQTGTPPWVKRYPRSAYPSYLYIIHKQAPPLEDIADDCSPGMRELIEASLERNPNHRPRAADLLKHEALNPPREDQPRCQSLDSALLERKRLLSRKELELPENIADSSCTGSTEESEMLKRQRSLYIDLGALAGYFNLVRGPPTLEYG

PRKX (human) = PRKX (human) (UniProt P51817)
CLK4 (human) = CLK4 (human) (UniProt Q9HAZ1)
CDK6 CCND3 (human) = CDK6 CCND3 (human) (UniProt P30281+Q00534)

## COc1ccc(-c2cnc3c(-c4ccsc4)cnn3c2)cc1
CAMK2G (human)
  residual activity: 93.7%
ROCK1 (human)
  residual activity: 95.7%
[1]
  residual activity: 86.1%
TNK2 (human)
  residual activity: 92.2%
EPHB2 (human)
  residual activity: 80.5%
MARK3 (human)
  residual activity: 88.8%
DAPK2 (human)
  residual activity: 87.4%
CDC42BPB (human)
  residual activity: 83.4%
NTRK1 (human)
  residual activity: 93.2%
ULK2 (human)
  residual activity: 103%
ACVR1B (human)
  residual activity: 100%
PIM2 (human)
  residual activity: 105%
PRKCI (human)
  residual activity: 96.2%
PTK2B (human)
  residual activity: 81.8%
GRK6 (human)
  residual activity: 99.9%
CLK1 (human)
  residual activity: 82.8%
MAP3K11 (human)
  residual activity: 51.9%
RIPK2 (human)
  residual activity: 56.8%
PRKD1 (human)
  residual activity: 95.1%
JAK3 JH1 JH2 (human)
  residual activity: 98.5%
CDK9 CCNT1 (human)
  residual activity: 73.8%
DAPK1 (human)
  residual activity: 103%
BRSK1 (human)
  residual activity: 81.5%
EPHB4 (human)
  residual activity: 87.5%
CSNK1G3 (human)
  residual activity: 102%
MAP3K3 (human)
  residual activity: 99.4%
MAP4K4 (human)
  residual activity: 28.4%
DYRK3 (human)
  residual activity: 89.9%
CDK2 CCNE1 (human)
  residual activity: 82.8%
TSSK2 (human)
  residual activity: 99%
STK3 (human)
  residual activity: 97.7%
CSNK1A1 (human)
  residual activity: 101%
STK33 (human)
  residual activity: 71.6%
BMX (human)
  residual activity: 90.6%
IRAK1 (human)
  residual activity: 94%
STK39 (human)
  residual activity: 95.1%
CLK3 (human)
  residual activity: 100%
EPHA4 (human)
  residual activity: 87.6%
MAP3K8 (human)
  residual activity: 105%
PRKX (human)
  residual activity: 89.5%
CLK4 (human)
  residual activity: 62%
CDK6 CCND3 (human)
  residual activity: 33.4%

## COc1cc2nccc(Oc3ccc(NC(=S)NC(=O)c4ccccc4C)cc3)c2cc1OC
CAMK2G (human)
  residual activity: 103%
ROCK1 (human)
  residual activity: 90.5%
[1]
  residual activity: 88.5%
TNK2 (human)
  residual activity: 26.9%
EPHB2 (human)
  residual activity: 93.5%
MARK3 (human)
  residual activity: 79.2%
DAPK2 (human)
  residual activity: 78.7%
CDC42BPB (human)
  residual activity: 90.5%
NTRK1 (human)
  residual activity: 82.5%
ULK2 (human)
  residual activity: 88.8%
ACVR1B (human)
  residual activity: 92.1%
PIM2 (human)
  residual activity: 117%
PRKCI (human)
  residual activity: 99.9%
PTK2B (human)
  residual activity: 93.4%
GRK6 (human)
  residual activity: 91%
CLK1 (human)
  residual activity: 89.9%
MAP3K11 (human)
  residual activity: 95.5%
RIPK2 (human)
  residual activity: 89.2%
PRKD1 (human)
  residual activity: 137%
JAK3 JH1 JH2 (human)
  residual activity: 96.6%
CDK9 CCNT1 (human)
  residual activity: 104%
DAPK1 (human)
  residual activity: 101%
BRSK1 (human)
  residual activity: 87%
EPHB4 (human)
  residual activity: 103%
CSNK1G3 (human)
  residual activity: 93.3%
MAP3K3 (human)
  residual activity: 105%
MAP4K4 (human)
  residual activity: 87.8%
DYRK3 (human)
  residual activity: 90.8%
CDK2 CCNE1 (human)
  residual activity: 96.7%
TSSK2 (human)
  residual activity: 86.7%
STK3 (human)
  residual activity: 86%
CSNK1A1 (human)
  residual activity: 96.3%
STK33 (human)
  residual activity: 94.6%
BMX (human)
  residual activity: 30.6%
IRAK1 (human)
  residual activity: 99.6%
STK39 (human)
  residual activity: 91.5%
CLK3 (human)
  residual activity: 93.2%
EPHA4 (human)
  residual activity: 81.4%
MAP3K8 (human)
  residual activity: 94.1%
PRKX (human)
  residual activity: 100%
CLK4 (human)
  residual activity: 87.8%
CDK6 CCND3 (human)
  residual activity: 97.3%

## Oc1ccc(-c2nc(-c3ccc(F)cc3)c(-c3ccncc3)[nH]2)cc1
CAMK2G (human)
  residual activity: 101%
ROCK1 (human)
  residual activity: 101%
[1]
  residual activity: 106%
TNK2 (human)
  residual activity: 83.2%
EPHB2 (human)
  residual activity: 105%
MARK3 (human)
  residual activity: 105%
DAPK2 (human)
  residual activity: 96.8%
CDC42BPB (human)
  residual activity: 103%
NTRK1 (human)
  residual activity: 105%
ULK2 (human)
  residual activity: 97.3%
ACVR1B (human)
  residual activity: 136%
PIM2 (human)
  residual activity: 106%
PRKCI (human)
  residual activity: 93.4%
PTK2B (human)
  residual activity: 96.2%
GRK6 (human)
  residual activity: 99.7%
CLK1 (human)
  residual activity: 107%
MAP3K11 (human)
  residual activity: 25.2%
RIPK2 (human)
  residual activity: 46.8%
PRKD1 (human)
  residual activity: 90.7%
JAK3 JH1 JH2 (human)
  residual activity: 95.8%
CDK9 CCNT1 (human)
  residual activity: 83.4%
DAPK1 (human)
  residual activity: 95%
BRSK1 (human)
  residual activity: 101%
EPHB4 (human)
  residual activity: 89%
CSNK1G3 (human)
  residual activity: 102%
MAP3K3 (human)
  residual activity: 103%
MAP4K4 (human)
  residual activity: 86.5%
DYRK3 (human)
  residual activity: 101%
CDK2 CCNE1 (human)
  residual activity: 90.6%
TSSK2 (human)
  residual activity: 93.1%
STK3 (human)
  residual activity: 105%
CSNK1A1 (human)
  residual activity: 62.3%
STK33 (human)
  residual activity: 103%
BMX (human)
  residual activity: 93.9%
IRAK1 (human)
  residual activity: 123%
STK39 (human)
  residual activity: 94.8%
CLK3 (human)
  residual activity: 101%
EPHA4 (human)
  residual activity: 96.2%
MAP3K8 (human)
  residual activity: 96.6%
PRKX (human)
  residual activity: 84%
CLK4 (human)
  residual activity: 106%
CDK6 CCND3 (human)
  residual activity: 104%

## O=C1Nc2ccccc2/C1=C\c1c(Cl)[nH]c2ccccc12
CAMK2G (human)
  residual activity: 103%
ROCK1 (human)
  residual activity: 101%
[1]
  residual activity: 110%
TNK2 (human)
  residual activity: 98.4%
EPHB2 (human)
  residual activity: 94.2%
MARK3 (human)
  residual activity: 104%
DAPK2 (human)
  residual activity: 96.8%
CDC42BPB (human)
  residual activity: 102%
NTRK1 (human)
  residual activity: 90.7%
ULK2 (human)
  residual activity: 99.7%
ACVR1B (human)
  residual activity: 105%
PIM2 (human)
  residual activity: 106%
PRKCI (human)
  residual activity: 99.2%
PTK2B (human)
  residual activity: 95.5%
GRK6 (human)
  residual activity: 107%
CLK1 (human)
  residual activity: 103%
MAP3K11 (human)
  residual activity: 100%
RIPK2 (human)
  residual activity: 85.4%
PRKD1 (human)
  residual activity: 89.5%
JAK3 JH1 JH2 (human)
  residual activity: 102%
CDK9 CCNT1 (human)
  residual activity: 98.4%
DAPK1 (human)
  residual activity: 88.1%
BRSK1 (human)
  residual activity: 91.9%
EPHB4 (human)
  residual activity: 90.2%
CSNK1G3 (human)
  residual activity: 92.8%
MAP3K3 (human)
  residual activity: 112%
MAP4K4 (human)
  residual activity: 75.7%
DYRK3 (human)
  residual activity: 101%
CDK2 CCNE1 (human)
  residual activity: 79.9%
TSSK2 (human)
  residual activity: 113%
STK3 (human)
  residual activity: 89.1%
CSNK1A1 (human)
  residual activity: 102%
STK33 (human)
  residual activity: 105%
BMX (human)
  residual activity: 99.8%
IRAK1 (human)
  residual activity: 89.5%
STK39 (human)
  residual activity: 104%
CLK3 (human)
  residual activity: 102%
EPHA4 (human)
  residual activity: 93.4%
MAP3K8 (human)
  residual activity: 94.3%
PRKX (human)
  residual activity: 106%
CLK4 (human)
  residual activity: 105%
CDK6 CCND3 (human)
  residual activity: 104%
